Assay results reported in patent publication US9034303B2, “Neuroprotective and neuro-restorative iron chelators and monoamine oxidase inhibitors and uses thereof” (priority 2010, dated 2015).
Entries after “also recorded” stand apart in the source; their conditions may differ. Where two headings read alike, the source gives them in different places. Marks after values point to notes of the source that are not given here.

What was measured:
[1] = Stability in aqueous solution (PBS or saline) followed by HPLC; assay type: physicochemical; conditions: for Stability in aqueous solution (in words): PBS and/or saline solution; for Amount of compound remaining (%): 0.5 mM
Description: (§1) Using high pressure liquid chromatography (HPLC), the stability of each of the tested compounds was determined by following its respective chemical character over time in either phosphate buffered saline (PBS) and/or 0.85% saline solution (sodium chloride). In each case, 0.5 mM of the tested compound in PBS or saline solution was incubated at 25° C. or at 37° C. for 20 hours or, in some cases, up to two days (48 hours).

rat brain MAO-A = rat brain MAO-A (Rattus norvegicus (Rat), UniProt P21396); assay: In vitro inhibition of rat brain MAO-A (14C-5-HT substrate); assay type: biochemical; conditions: for IC50: estimated from the data in FIG. 1, rat brain MAO-A, read-out: MAO-A IC50
Sequence of rat brain MAO-A (P21396 whole entry): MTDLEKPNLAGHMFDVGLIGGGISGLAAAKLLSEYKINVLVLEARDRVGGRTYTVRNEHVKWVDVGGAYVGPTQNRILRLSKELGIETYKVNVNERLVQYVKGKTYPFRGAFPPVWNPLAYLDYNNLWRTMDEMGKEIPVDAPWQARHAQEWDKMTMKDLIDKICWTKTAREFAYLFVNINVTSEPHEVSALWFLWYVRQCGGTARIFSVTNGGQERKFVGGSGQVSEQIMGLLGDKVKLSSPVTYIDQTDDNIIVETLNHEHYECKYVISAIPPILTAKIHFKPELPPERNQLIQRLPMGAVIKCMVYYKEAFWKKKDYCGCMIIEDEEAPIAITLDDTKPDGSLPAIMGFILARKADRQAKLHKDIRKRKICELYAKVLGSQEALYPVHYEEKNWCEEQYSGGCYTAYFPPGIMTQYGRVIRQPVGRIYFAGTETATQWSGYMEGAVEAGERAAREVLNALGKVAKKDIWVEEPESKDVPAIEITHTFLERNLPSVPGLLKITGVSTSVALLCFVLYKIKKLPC
Description: Rats are decapitated and the brains quickly taken into a weighted ice-cold sucrose buffer (0.32 M) and their weights determined. All subsequent procedures are performed at 0° C. The brains are homogenized in 0.32 M sucrose (one part tissue to 20 parts sucrose) in a Teflon glass homogenizer followed by the addition of sucrose buffer to a final concentration of 10% homogenate. The homogenates are centrifuged at 600 g for 15 min. The supernatant fractions are taken out and centrifuged at 4500 g for 30 min, the pellet diluted in 0.32 M sucrose buffer and kept frozen for later assaying of MAO. Protein concentration is determined with Bradford reagent at λ=595 nm, using BSA as a standard.
(§2) MAO-A and MAO-B activities are determined in rat brain homogenate in vitro following incubation with varying concentrations of the test compounds.
The activity of MAO-A and MAO-B was determined by the adapted method of Tipton & Youdim (Tipton K F, O'Sullivan J, Youdim M B, 1983, Encyclopedia of Neuroscience, 2004, G. Adelman and B. H. Smith, Elsevier). The test compound was added to a suitable dilution of the enzyme preparation (70 μg protein for MAO-B and 150 μg MAO-A assay) in 0.1 M phosphate buffer (pH 7.4). The mixture was incubated together with […], a specific inhibitor of MAO-B (for determination of MAO-A) or 0.05 M clorgylin, a specific inhibitor of MAO-A (for determination of MAO-B). Incubation was carried for 0.5 or 1 h at 37° C. before addition of ^14C-5-hydroxytryptamine binoxalate (5-HT) (100 or 400 μM) for determination of MAO-A, or ^14C-phenylethylamine (^14C-PEA) 100 or 400 μM for determination of MAO-B, and incubation continued for 30 min or 20 min, respectively. The reaction was stopped with 2 M ice-cold citric acid, and the metabolites were extracted and determined by liquid-scintillation counting in cpm units. […]
(§3) MAO-A and MAO-B activity was measured using radioactive substrates. The substrate for MAO-A was 5 HT and for MAO-B was PEA. When measuring the activity of MAO-A, the MAO-B activity was inhibited with deprenyl and when measuring the activity of MAO-B the activity of MAO-A was inhibited with clorgylin. Blank samples were produced using TCP to inhibit both of the enzymes. The metabolites were extracted to toluene and read in a β-counter. The results are expressed in relative activity and normalized to the amount of protein in the tissue.

rat brain MAO-B = rat brain MAO-B (Rattus norvegicus (Rat), UniProt P19643); assay: In vitro inhibition of rat brain MAO-B (14C-PEA substrate); assay type: biochemical; conditions: for IC50: estimated from FIG. 2, rat brain MAO-B, read-out: MAO-B IC50
Sequence of rat brain MAO-B (P19643 whole entry): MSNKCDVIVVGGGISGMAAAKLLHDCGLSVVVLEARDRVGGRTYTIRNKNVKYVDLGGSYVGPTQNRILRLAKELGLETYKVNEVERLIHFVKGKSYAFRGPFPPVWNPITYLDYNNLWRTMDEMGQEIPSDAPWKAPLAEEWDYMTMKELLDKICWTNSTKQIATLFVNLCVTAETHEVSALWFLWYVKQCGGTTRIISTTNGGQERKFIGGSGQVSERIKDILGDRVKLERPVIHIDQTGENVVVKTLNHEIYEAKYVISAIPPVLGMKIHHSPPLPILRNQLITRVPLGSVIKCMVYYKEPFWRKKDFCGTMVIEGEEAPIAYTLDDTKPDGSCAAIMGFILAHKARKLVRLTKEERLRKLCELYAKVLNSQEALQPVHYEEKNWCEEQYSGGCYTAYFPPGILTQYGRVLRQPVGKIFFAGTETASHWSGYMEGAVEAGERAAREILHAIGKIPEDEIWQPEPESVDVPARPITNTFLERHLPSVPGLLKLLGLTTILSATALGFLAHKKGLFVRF
Description: Rats are decapitated and the brains quickly taken into a weighted ice-cold sucrose buffer (0.32 M) and their weights determined. All subsequent procedures are performed at 0° C. The brains are homogenized in 0.32 M sucrose (one part tissue to 20 parts sucrose) in a Teflon glass homogenizer followed by the addition of sucrose buffer to a final concentration of 10% homogenate. The homogenates are centrifuged at 600 g for 15 min. The supernatant fractions are taken out and centrifuged at 4500 g for 30 min, the pellet diluted in 0.32 M sucrose buffer and kept frozen for later assaying of MAO.
as §2
The in vitro inhibitory activity of the compounds is tested against rat brain MAO-B. The test compounds are added to buffer containing 10^−7 M clorgylin and are incubated with the tissue homogenate for 30 or 60 min at 37° C. before addition of ^14C-PEA.
The test compound was added to a suitable dilution of the enzyme preparation (70 μg protein for MAO-B and 150 μg MAO-A assay) in 0.1 M phosphate buffer (pH 7.4). The mixture was incubated together with […], a specific inhibitor of MAO-B (for determination of MAO-A) or 0.05 M clorgylin, a specific inhibitor of MAO-A (for determination of MAO-B). Incubation was carried for 0.5 or 1 h at 37° C. before addition of ^14C-5-hydroxytryptamine binoxalate (5-HT) (100 or 400 μM) for determination of MAO-A, or ^14C-phenylethylamine (^14C-PEA) 100 or 400 μM for determination of MAO-B, and incubation continued for 30 min or 20 min, respectively. The reaction was stopped with 2 M ice-cold citric acid, and the metabolites were extracted and determined by liquid-scintillation counting in cpm units.
The reaction was stopped with 2 M ice-cold citric acid, and the metabolites were extracted with ethyl acetate and levels of radioactivity were determined by liquid-scintillation counting in CPM units. All assays were performed at least in duplicate and outcome was expressed as a mean±SEM. Data were analyzed by a Student's t test. Variations were considered statistically significant at a p value of 0.05.
as §3

[2] = Follow-up stability experiment at 37° C. in PBS; assay type: physicochemical
Description: as §1
In addition, in a follow-up experiment the instability of M30, and the stability of compounds 3, 7 and 8 was also confirmed at 37° C. in PBS, Table 2, below.

SHSY-5Y cells = assay: Cytotoxicity in presence and absence of exogenous iron, SH-SY5Y; assay type: cell-based, human; conditions: iron alone, 20 μM
Description: (§4) The potential of compound 3 to be toxic in the presence of free iron was also tested. The iron complexation method was based on the method of Leanderson and Tagesson (Carcinogenesis, 17, 545-550, 1996) with some modifications. Iron (III) was prepared from ferric ammonium citrate (Sigma, F5879) at 80 mM in sterile distilled water. Compound 3 was prepared at a 200 mM concentration in DMSO. Before each experiment, the freshly prepared iron (III) solution was diluted to 0.4 mM in PBS II (PBS containing 0.90 mM Ca^2+ and 0.49 mM Mg^2+). Compound 3 stock solutions were diluted to 2, 0.2, and 0.02 mM with PBS II. Equal volumes of the 0.4 mM iron (III) solution and compound 3 solutions were added together to prepare iron/test article complex solutions containing 1, 0.1, and 0.01 mM compound 3 and 0.2 mM iron (III). The compound 3 DMSO stock solution was diluted in PBS II at 1, 0.1, or 0.01 mM and used as compound 3 control without iron. An equal volume of the 0.4 mM iron (III) solution was diluted in PBS II to prepare a control containing only iron.
(§5) The medium was removed from the plated cells (both cell lines) and replaced with fresh medium (90 μL). Iron/compound 3 complex or compound 3 in PBS II without iron was added to cells in triplicate (10 μL) to final compound 3 concentrations of 100, 10, and 1 μM and an iron (III) concentration of 20 μM. Wells containing no cells were used as the background control. PBS II was run as vehicle control. Iron only was run at a final concentration of 20 μM.
(§6) Cell viability was determined as described above and cytotoxicity was compared between treatments with and without iron complexation.

HepG2 cells = assay: Cytotoxicity in presence and absence of exogenous iron, HepG2; assay type: cell-based, human; conditions: iron alone, 20 μM
Description: as §4, §5, §6

[3] = concentration 0.01 mM, rat brain extracts
[4] = concentration 0.1 mM, rat brain extracts

Question: Which “Stability in aqueous solution (in words)” value [1] does the source give for `C#CCN(C)C(C)c1ccc(O)c2ncccc12` (stereo not shown) [5-(1-(methyl(prop-2-ynyl) amino)ethyl)quinolin-8-ol] here?
Answer: Its value is “**Decomposition of 5-(1-(methyl(prop-2-ynyl) amino)ethyl)quinolin-8-ol occurred immediately upon dissolution in PBS aspredicted by the working hypothesis”.

Question: Which “Stability in aqueous solution (in words)” value [1] does the source give for `C#CCN(C)C(C)c1ccc(O)c2ncccc12` (stereo not shown) [5-(1-(methyl(prop-2-ynyl)amino)ethyl)quinolin-8-ol] [5-[1-(methyl-2-propyn-1-ylamino)ethyl]-8-quinolinol] here?
Answer: The value was “decomposed immediately”.

Question: And the “Amount of compound remaining (%)” value ([1]; PBS, 25° C., 0.5 hours)?
Answer: The value was 0.0** %.

Question: Which results are given for `C#CCN(C)CCCc1ccc(O)c2ncccc12` [Compound 4, 5-[3-(methyl-2-propyn-1-ylamino)propyl]-8-quinolinol]?
Answer: IC50 (rat brain MAO-A; listed as compound 4): ~0.2 µM; IC50 (rat brain MAO-A): 0.2 µM; Inhibition of rat brain MAO-A in vitro (in words) (rat brain MAO-A): potent inhibitors; IC50 (rat brain MAO-B): 0.1 µM; Inhibition of rat brain MAO-B in vitro (in words) (rat brain MAO-B): potent inhibitors; Stability in aqueous solution (in words) [1]: highly stable chemically; Amount of compound remaining (%) ([1]; PBS, 25° C., 0.5 hours): 100%; Amount of compound remaining (%) ([1]; PBS, 25° C., 2 hours): 100%; Amount of compound remaining (%) ([1]; PBS, 25° C., 20 hours): 100%; Amount of compound remaining (%) ([1]; PBS, 25° C., 48 hours): 100%; Amount of compound remaining (%) ([1]; saline, 25° C., 0.5 hours): 100%; Amount of compound remaining (%) ([1]; saline, 25° C., 2 hours): 100%; Amount of compound remaining (%) ([1]; saline, 25° C., 20 hours): 100%; Amount of compound remaining (%) ([1]; saline, 25° C., 48 hours): 100%

Question: Which results are given for `C#CCN(C)CCc1cc(C2CC2)c(O)c2ncccc12` [Compound 7, 7-cyclopropyl-5-[2-(methyl-2-propyn-1-ylamino)ethyl]-8-quinolinol]?
Answer: Amount of compound remaining (%) ([2]; 3 hours): 99.7%; Amount of compound remaining (%) ([2]; 8 hours): 97.7%; Amount of compound remaining (%) ([2]; 24 hours): 94.1%; Amount of compound remaining (%) ([2]; 48 hours): 100%

Question: What does the source list for `C#CCN(C)CCc1cc(F)c(O)c2ncccc12` [Compound 8, 7-fluoro-5-[2-(methyl-2-propyn-1-ylamino)ethyl]-8-quinolinol]?
Answer: Amount of compound remaining (%) ([2]; 3 hours): ≧100%; Amount of compound remaining (%) ([2]; 8 hours): 96.7%; Amount of compound remaining (%) ([2]; 24 hours): ≧100%; Amount of compound remaining (%) ([2]; 48 hours): ≧100%

Question: What does the source list for `[Fe+3]` [Iron]?
Answer: SHSY-5Y cell death (%) (SHSY-5Y cells): −1.0%; HepG2 cell death (%) (HepG2 cells): 1.6%

Question: Which inhibition at 10 µM (rat brain MAO-A; [3]) does the source give for `C#CCN(C)Cc1ccc(OC)c2ncccc12` [O-Methyl-M30] here?
Answer: The inhibition at 10 µM was 98.5%.

Question: What about the inhibition at 100 µM (rat brain MAO-A; [4]) of the same molecule?
Answer: Its inhibition at 100 µM is 99.7%.

Question: What about the IC50 (rat brain MAO-A) of the same molecule?
Answer: Its IC50 is 0.25 to 0.3 µM.

Question: And the “Inhibition of rat brain MAO-A in vitro (in words)” value (rat brain MAO-A)?
Answer: Its value is “potent inhibitors”.

Question: What about the “Inhibition of rat brain MAO-A in vitro (in words)” value (rat brain MAO-A; listed as O-methyl M30) of the same molecule?
Answer: Its value is “inhibits both brain MAO-A and MAO-B at apparently similar levels”.

Question: And the inhibition at 10 µM (rat brain MAO-B; [3])?
Answer: The inhibition at 10 µM was 87.8%.

Question: And the inhibition at 100 µM (rat brain MAO-B; [4])?
Answer: Its inhibition at 100 µM is 97.3%.

Question: What about the IC50 (rat brain MAO-B) of the same molecule?
Answer: The IC50 was 0.02 to 0.04 µM.

Question: What about the “Inhibition of rat brain MAO-B in vitro (in words)” value (rat brain MAO-B) of the same molecule?
Answer: The value was “potent inhibitors”.

Question: And the “Inhibition of rat brain MAO-B in vitro (in words)” value (rat brain MAO-B; listed as O-methyl M30)?
Answer: Its value is “inhibits both brain MAO-A and MAO-B at apparently similar levels”.

Question: For `C#CCN(C)CCc1ccc(OC)c2ncccc12` [[O-Methyl-Compound 3], 8-methoxy-N-methyl-N-2-propyn-1-yl-5-quinolineethanamine], which “Stability in aqueous solution (in words)” value [1] is on record?
Answer: Its value is “highly stable chemically; also recorded: stable in PBS at 37 °C for at least two days”.

Question: And the “Amount of compound remaining (%)” value ([1]; PBS, 25° C., 0.5 hours)?
Answer: The value was 100%.

Question: And the “Amount of compound remaining (%)” value ([1]; PBS, 25° C., 2 hours)?
Answer: The value was 100%.

Question: What about the “Amount of compound remaining (%)” value ([1]; PBS, 25° C., 20 hours) of the same molecule?
Answer: The value was 100%.

Question: And the “Amount of compound remaining (%)” value ([1]; PBS, 25° C., 48 hours)?
Answer: The value was 100%.

Question: What about the “Amount of compound remaining (%)” value ([1]; saline, 37° C., 0.5 hours) of the same molecule?
Answer: The value was 100%.

Question: What about the “Amount of compound remaining (%)” value ([1]; saline, 37° C., 2 hours) of the same molecule?
Answer: Its value is 100%.

Question: And the “Amount of compound remaining (%)” value ([1]; saline, 37° C., 20 hours)?
Answer: The value was 100%.

Question: And the “Amount of compound remaining (%)” value ([1]; saline, 37° C., 48 hours)?
Answer: The value was 100%.
